According to patent US9198420B2, “Rodenticidal norbormide analogues” (priority 2012, dated 2015):
Read-outs that look alike come from different tables or passages of the source. Marks after values point to notes of the source that are not given here.

Legend:
[1] = tested on: Sprague Dawley rats; test: In vivo lethality, oral gavage; design: species or system rat (Sprague Dawley); conditions: rat; for Time to Death (min) / Onset of Symptoms: mean time; for Onset of Symptoms: visual signs of distress consistent with NRB-like symptoms
Procedure, shortened: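 Sprague Dawley rats (150-200 g) received compound dissolved in 0.2 M HCl (5% DMSO overall) at the desired dose, by oral gavage or tail-vein i.v. injection. Animals were watched for early toxicity signs every minute (i.v.) or every 15 min (oral).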

[2] = tested on: Sprague Dawley rats; test: Palatability (no-choice) trial, peanut butter bait; assay type: in vivo, rat (Sprague Dawley); conditions: po, 1% w/w toxicant in peanut butter bait
From the text: In the palatability trials, Sprague Dawley rats (ca. 250 g) were presented with 1% w/w compound (n=6) or 0.5% w/w compound (n=5) in a peanut butter bait, following 3 days ‘pre-baiting’ with a peanut butter formulation free of toxicant.

[3] = tested on: rat caudal artery; test: Rat caudal artery ring contractile force (vasoconstrictory activity); design: species or system rat (male Wistar)
Procedure, shortened: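 Endothelium-denuded caudal artery rings from male Wistar rats were held at 2 g resting tension in Tyrode solution (37° C, pH 7.35, 95% O2/CO2) and isometric force was recorded. Compounds were tested at 50 μM, with contraction expressed as percent of the 90 mM KCl response.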

[4] = tested on: Sprague Dawley rats; test: In vivo lethality, intravenous injection via the tail; design: species or system rat (Sprague Dawley); conditions: rat
Procedure: Sprague Dawley rats (150-200 g) were used to appraise the rodenticidal activity of the compounds put forward for in vivo evaluation. Briefly, prior to administration the compounds were dissolved in 0.2 M hydrochloric acid (5% DMSO overall), to the desired dose, and without delay either injected intravenously, via the tail, or orally gavaged. All treated animals were housed in a quiet room and monitored every minute (i.v) or every 15 min (oral) to verify early signs of toxicity.

[5] = n = 6, 3 male and 3 female rats, Table 12, read-out: No of deaths (converted)
[6] = Table 1, read-out: Vasoconstriction: maximum contractile effect as a % of 90 mM KCl contraction
[7] = n = 6, 3 male and 3 female rats, Table 11, read-out: No of deaths (converted)
[8] = Table 7, compounds of formula (V)

| Compound | Time to Death (min) ([1]; 20 mg/Kg) | Onset of Symptoms ([1]; 20 mg/Kg) | In vivo lethality (oral) ([1]; 40 mg/Kg, n = 2) | Vasoconstriction: maximum contractile effect as a % of 90 mM KCl contraction ([3]; Table 4, pre-cleavage, n = 3) | melting point | Emax [3, 6] | mortality at 1 % [2, 7] | further results |
| --- | --- | --- | --- | --- | --- | --- | --- | --- |
| CCOc1ccc(C=CC(=O)NCCN2C(=O)C3C4C=C(C(O)(c5ccccc5)c5ccccn5)C(C4=C(c4ccccc4)c4ccccn4)C3C2=O)cc1 (stereo not drawn) [Compound 345, N-[2′-(4″-Ethoxycinnamamido)ethyl]-5-(α-hydroxy-α-2-pyridylbenzyl)-7-(α-2-pyridylbenzylidene)-5-norbornene-2,3-dicarboximide] | 65^d min | 15 min | yes^h,i | 0% |  |  |  | In vivo lethality (oral) ([1]; 20 mg/Kg, n = 2): yes^h,i; mortality at 1 % [2, 5]: 33.3%; Emax ([3]; Table 2, read-out: Vasoconstriction: maximum contractile effect as a % of 90 mM KCl contraction): 0% |
| O=C(C=Cc1ccc(OC(F)(F)F)cc1)OCCN1C(=O)C2C3C=C(C(O)(c4ccccc4)c4ccccn4)C(C3=C(c3ccccc3)c3ccccn3)C2C1=O (stereo not drawn) [Compound 127, 5-(α-Hydroxy-α-2-pyridylbenzyl)-7-(α-2-pyridylbenzylidene)-N-[2′-(4″-trifluoromethoxycinnamoyloxy)ethyl]-5-norbornene-2,3-dicarboximide] |  |  |  | 0% | 100 to 105 °C | 0% |  |  |
| CCCCCCCC(=O)OCN1C(=O)C2C3C=C(C(O)(c4ccccc4)c4ccccn4)C(C3=C(c3ccccc3)c3ccccn3)C2C1=O (stereo not drawn) [Compound 10, 5-(α-Hydroxy-α-2-pyridylbenzyl)-N-octanoyloxymethyl-7-(α-2-pyridylbenzylidene)-5-norbornene-2,3-dicarboximide] | not lethal | 15 min | yes^h | 0% |  | 0% | 100% | In vivo lethality (i.v.) ([4]; 20 mg/Kg, n = 2): yes^f |
| COc1ccc(C(=O)OCN2C(=O)C3C4C=C(C(O)(c5ccccc5)c5ccccn5)C(C4=C(c4ccccc4)c4ccccn4)C3C2=O)cc1 (stereo not drawn) [Compound 15, 5-(α-Hydroxy-α-2-pyridylbenzyl)-N-p-methoxybenzoyloxymethyl-7-(α-2-pyridylbenzylidene)-5-norbornene-2,3-dicarboximide] |  |  |  | 0% | 94 to 112 °C | 0% |  |  |
| CCCC(=O)OCN1C(=O)C2C3C=C(C(O)(c4ccccc4)c4ccccn4)C(C3=C(c3ccccc3)c3ccccn3)C2C1=O (stereo not drawn) [Compound 9, N-Butanoyloxymethyl-5-(α-hydroxy-α-2-pyridylbenzyl)-7-(α-2-pyridylbenzylidene)-5-norbornene-2,3-dicarboximide] |  |  |  | 86% | 68 to 79 °C | 86% |  |  |
| COc1ccccc1C(=O)OCN1C(=O)C2C3C=C(C(O)(c4ccccc4)c4ccccn4)C(C3=C(c3ccccc3)c3ccccn3)C2C1=O (stereo not drawn) [Compound 13, 5-(α-Hydroxy-α-2-pyridylbenzyl)-N-o-methoxybenzoyloxymethyl-7-(α-2-pyridylbenzylidene)-5-norbornene-2,3-dicarboximide] |  |  |  | 90% | 83 to 88 °C | 90% |  |  |
| O=C(OCN1C(=O)C2C3C=C(C(O)(c4ccccc4)c4ccccn4)C(C3=C(c3ccccc3)c3ccccn3)C2C1=O)c1ccccc1 (stereo not drawn) [Compound 12, N-Benzoyloxymethyl-5-(α-hydroxy-α-2-pyridylbenzyl)-7-(α-2-pyridylbenzylidene)-5-norbornene-2,3-dicarboximide] |  |  |  | ≧132% | 94 to 96 °C | ≥ 132% |  |  |
| NCc1ccc(C(=O)OCCN2C(=O)C3C4C=C(C(O)(c5ccccc5)c5ccccn5)C(C4=C(c4ccccc4)c4ccccn4)C3C2=O)cc1.O=C(O)C(F)(F)F (stereo not drawn) [Compound 342, N-[2′-(4-Aminomethylbenzoyloxy)ethyl]-5-(α-hydroxy-α-2-pyridylbenzyl)-7-(α-2-pyridylbenzylidene)-5-norbornene-2,3-dicarboximide trifluoroacetate] |  |  | yes^h | 136% |  | 136% | 66.7% |  |
| CC(C)c1ccc(C=CC(=O)OCCN2C(=O)C3C4C=C(C(O)(c5ccccc5)c5ccccn5)C(C4=C(c4ccccc4)c4ccccn4)C3C2=O)cc1 (stereo not drawn) [Compound 347, 5-(α-Hydroxy-α-2-pyridylbenzyl)-N-[2′-(4″-isopropylcinnamoyloxy)ethyl]-7-(α-2-pyridylbenzylidene)-5-norbornene-2,3-dicarboximide] | not lethal | 20 min | yes^h | 0% |  | 0% |  | mortality at 1 % [2, 5]: 50% |
| O=C1NC(=O)C2C3C(C(O)(c4ccccc4)c4ccccn4)=CC(C3=C(c3ccccc3)c3ccccn3)C12 (stereo not drawn) [endo-NRB, 5-(α-Hydroxy-α-2-pyridylbenzyl)-7-(α-2-pyridylbenzylidene)-5-norbornene-2,3-dicarboximide, reference compound] | 35^d min | 5 min | yes^h,i | 132% |  |  | 66.7% | In vivo lethality (oral) ([1]; 20 mg/Kg, n = 2): yes^h,i; In vivo lethality (oral) ([1]; 20 mg/Kg, n = 2, Table 6): yes^g,h; In vivo lethality (oral) ([1]; 20 mg/Kg, n = 3, Table 8): yes^c,d; In vivo lethality (oral) ([1]; 40 mg/Kg, n = 2, Table 6): yes^g,h; In vivo lethality (oral) ([1]; 40 mg/Kg, n = 3, Table 8): yes^c,d; In vivo lethality (i.v.) ([4]; 10 mg/Kg, n = 2): yes^f,g; In vivo lethality (i.v.) ([4]; 10 mg/Kg, n = 2, Table 6): yes^e,f; In vivo lethality (i.v.) ([4]; 20 mg/Kg, n = 2): yes^f,g; In vivo lethality (i.v.) ([4]; 20 mg/Kg, n = 2, Table 6): yes^e,f; In vivo lethality (i.v.) ([4]; 20 mg/Kg, n = 3, Table 8): yes^b; mortality at 1 % [2, 5]: 50%; mortality at 1 % ([2]; n = 6, male rats only, Table 10, read-out: No of deaths (converted)): 50%; Vasoconstriction: maximum contractile effect as a % of 90 mM KCl contraction ([3]; n = 3, Table 8): 132%; Vasoconstriction: maximum contractile effect as a % of 90 mM KCl contraction ([3]; n = 3, pre-cleavage, Table 6): 132% |
| O=C1C2C3C=C(C(O)(c4ccccc4)c4ccccn4)C(C3=C(c3ccccc3)c3ccccn3)C2C(=O)N1CCCO (stereo not drawn) [Compound 104, N-3′-Hydroxypropyl-5-(α-hydroxy-α-2-pyridylbenzyl)-7-(α-2-pyridylbenzylidene)-5-norbornene-2,3-dicarboximide] |  |  |  |  |  |  |  | In vivo lethality (oral) ([1]; 40 mg/Kg, n = 3, Table 8): yes^c; In vivo lethality (i.v.) ([4]; 20 mg/Kg, n = 3, Table 8): yes^b; Vasoconstriction: maximum contractile effect as a % of 90 mM KCl contraction [3, 8]: ≧132%; Vasoconstriction: maximum contractile effect as a % of 90 mM KCl contraction ([3]; n = 3, Table 8): ≧132% |
| O=C1C2C3C=C(C(O)(c4ccccc4)c4ccccn4)C(C3=C(c3ccccc3)c3ccccn3)C2C(=O)N1CCO (stereo not drawn) [Compound 102, N-2′-Hydroxyethyl-5-(α-hydroxy-α-2-pyridylbenzyl)-7-(α-2-pyridylbenzylidene)-5-norbornene-2,3-dicarboximide] |  |  |  |  |  |  |  | In vivo lethality (oral) ([1]; 20 mg/Kg, n = 3, Table 8): yes^c,d; In vivo lethality (oral) ([1]; 40 mg/Kg, n = 3, Table 8): yes^c,d; In vivo lethality (i.v.) ([4]; 20 mg/Kg, n = 3, Table 8): yes^b; Vasoconstriction: maximum contractile effect as a % of 90 mM KCl contraction [3, 8]: ≧132%; Vasoconstriction: maximum contractile effect as a % of 90 mM KCl contraction ([3]; n = 3, Table 8): ≧132% |
| O=C(Cc1ccccc1)OCN1C(=O)C2C3C=C(C(O)(c4ccccc4)c4ccccn4)C(C3=C(c3ccccc3)c3ccccn3)C2C1=O (stereo not drawn) [Compound 16, 5-(α-Hydroxy-α-2-pyridylbenzyl)-N-phenylacetyloxymethyl-7-(α-2-pyridylbenzylidene)-5-norbornene-2,3-dicarboximide] | 90^d min | 15 min | yes^h,i | 15% |  | 15% | 83.3% | In vivo lethality (oral) ([1]; 20 mg/Kg, n = 2): yes^h,i; In vivo lethality (i.v.) ([4]; 20 mg/Kg, n = 2): yes^f |
